# Reference: PMC12597552 (Drug metabolism and disposition: the biological fate of …, 2025)
# Entries after “also recorded” stand apart in the source; their conditions may differ. Like-named read-outs stand apart in the source and are kept apart here.
# Tests used:
# [1] = biological target: T1, CYP3A4 (Homo sapiens, UniProt P08684); assay: IC50 shift assay in recombinant CYP3A4 microsomes; format: in vitro ADME; set-up: made in house; conditions: recombinant CYP3A4-overexpressing microsomes, probe midazolam (1′-hydroxylation), 1′-hydroxylation of midazolam, rec CYP3A4, 30-min preincubation minus vs plus NADPH, mean ± SD
# T1 sequence (P08684 whole entry): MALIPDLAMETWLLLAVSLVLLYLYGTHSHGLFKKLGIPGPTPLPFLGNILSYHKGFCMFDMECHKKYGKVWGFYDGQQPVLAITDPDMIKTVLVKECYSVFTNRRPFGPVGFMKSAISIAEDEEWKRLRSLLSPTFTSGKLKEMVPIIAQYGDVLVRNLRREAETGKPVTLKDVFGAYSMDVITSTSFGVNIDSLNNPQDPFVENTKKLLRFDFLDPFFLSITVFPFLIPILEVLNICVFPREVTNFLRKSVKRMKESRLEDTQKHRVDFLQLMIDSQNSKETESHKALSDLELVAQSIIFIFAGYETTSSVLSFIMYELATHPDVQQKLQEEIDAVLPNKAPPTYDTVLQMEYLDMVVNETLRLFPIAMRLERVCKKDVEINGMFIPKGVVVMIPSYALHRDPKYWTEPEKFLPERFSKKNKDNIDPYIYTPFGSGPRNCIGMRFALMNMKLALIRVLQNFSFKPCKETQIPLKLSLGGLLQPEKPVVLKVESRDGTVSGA
# Method: (§1) To characterize inhibition type, IC50 shift studies were performed using recombinant P450-overexpressing microsomes. Assays were preincubated at 37°C for 30 minutes with cannabinoid with or without NADPH in the absence of a probe substrate. After preincubation, substrate was added and incubated for 30 minutes. IC50 values were calculated as mentioned above using GraphPad Prism 10.0.
# (§2) IC50shift=IC50with30-minpreincubationminusNADPH/IC50with30-minpreincubationplusNADPH
# [2] = biological target: T2, CYP2C9 (Homo sapiens, UniProt P11712); assay: IC50 shift assay in recombinant CYP2C9 microsomes; format: in vitro ADME; set-up: made in house; conditions: recombinant CYP2C9-overexpressing microsomes, probe diclofenac (4′-hydroxylation), 4′-hydroxylation of diclofenac, rec CYP2C9, 30-min preincubation minus vs plus NADPH, mean ± SD
# T2 sequence (P11712 whole entry): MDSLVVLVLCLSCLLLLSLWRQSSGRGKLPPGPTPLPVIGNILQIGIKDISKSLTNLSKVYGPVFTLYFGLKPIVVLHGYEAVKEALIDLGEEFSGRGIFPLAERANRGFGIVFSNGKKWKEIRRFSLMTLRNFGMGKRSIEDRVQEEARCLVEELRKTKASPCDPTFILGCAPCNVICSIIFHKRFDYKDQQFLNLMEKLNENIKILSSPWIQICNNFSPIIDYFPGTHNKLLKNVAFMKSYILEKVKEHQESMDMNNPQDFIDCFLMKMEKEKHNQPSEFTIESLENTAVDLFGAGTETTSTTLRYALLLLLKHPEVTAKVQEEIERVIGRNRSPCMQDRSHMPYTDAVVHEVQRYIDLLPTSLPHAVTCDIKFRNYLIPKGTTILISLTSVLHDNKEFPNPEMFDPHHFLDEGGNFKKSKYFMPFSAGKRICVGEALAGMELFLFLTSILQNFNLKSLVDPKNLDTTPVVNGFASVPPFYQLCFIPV
# Method: as §1, §2
# [3] = tested on: CYP2C9 and CYP3A4; assay: IC50,u / Ki,u summarised across all CYP2C9 and CYP3A4 enzyme-substrate pairs; format: in vitro ADME; conditions: human
# [4] = biological target: T2, CYP2C9; assay: Inhibition of CYP2C9 activity in pooled human liver microsomes (diclofenac and warfarin probes); format: in vitro ADME; set-up: made in house; host or cells: HEK293 cells (microsomal fraction); conditions: HLM, unbound, adjusted with fu,inc, mean ± SD; for IC50: IC50,u; for Ki: Ki,u
# [5] = biological target: T1, CYP3A4; assay: Inhibition of recombinant CYP3A4-overexpressing microsomes (midazolam probe); format: in vitro ADME; set-up: made in house; host or cells: HEK293 cells (microsomal fraction); conditions: for Inhibition Type: 1′-hydroxylation of midazolam, cell merged over rec CYP3A4 and HLM; for inhibition mechanism (Lineweaver–Burk): CYP3A4-mediated midazolam metabolism, recombinant P450 microsomes and HLM, consistent profiles
# [6] = biological target: T2, CYP2C9; assay: Initial inhibition screen at 1 or 10 μM, CYP2C9 (recombinant microsomes and HLM); format: in vitro ADME; set-up: made in house; host or cells: HEK293 cells (microsomal fraction); conditions: 10 μM cannabinoid; recombinant P450-overexpressing microsomes as well as HLM
# [7] = set by similarity to Δ9-THC; cited from earlier work
# [8] = biological target: T2, CYP2C9; assay: Inhibition of recombinant CYP2C9-overexpressing microsomes (diclofenac and warfarin probes); format: in vitro ADME; set-up: made in house; host or cells: HEK293 cells (microsomal fraction); conditions: for Inhibition Type: cell merged over rec CYP2C9 and HLM; for inhibition mechanism (Lineweaver–Burk): recombinant P450 microsomes and HLM, consistent profiles; for IC50: IC50,u, rec CYP2C9 microsomes; for IC50 / Ki: unbound, mean ± SD; for Ki: Ki,u, rec CYP2C9
# [9] = biological target: T1, CYP3A4; assay: Inhibition of CYP3A4 activity in pooled human liver microsomes (midazolam probe); format: in vitro ADME; set-up: made in house; host or cells: HEK293 cells (microsomal fraction)
# [10] = tested on: CYPs 1A2, 2B6, 2C8, 2C9, 2C19, 2D6, 2E1, and 3A4; assay: Initial inhibition screen at 1 or 10 μM, panel of major hepatic P450 enzymes; format: in vitro ADME, human; conditions: for inhibition of other major hepatic P450 enzymes tested: enzymes other than CYPs 2C9 and 3A4; for inhibition of any P450 enzymes tested: 1 or 10 μM, recombinant microsomes and HLM
# [11] = biological target: T1, CYP3A4; assay: Initial inhibition screen at 1 or 10 μM, CYP3A4 (recombinant microsomes and HLM); format: in vitro ADME; set-up: made in house; host or cells: HEK293 cells (microsomal fraction); conditions: for reduction of 1′-hydroxymidazolam formation: 10 μM cannabinoid, recombinant P450-overexpressing microsomes as well as HLM; for inhibition of CYP3A4 with testosterone as substrate: substrate-specific: midazolam vs testosterone
# [12] = cited from earlier work
# [13] = biological target: T2, CYP2C9; conditions: CYP2C9-mediated 4′-hydroxylation of diclofenac; cited from earlier work
# [14] = tested on: CYP2B6; conditions: read-out: Ki,u, cited from earlier work
# [15] = biological target: T1, CYP3A4; conditions: CYP3A4-mediated 1′-hydroxylation of midazolam; cited from earlier work
# [16] = tested on: CYP3A4; set-up: method as in PMID 34493602; conditions: 800 mg oral dose of CBD; mechanistic static modeling; cited from earlier work
# [17] = value set in static model; cited from earlier work
# [18] = tested on: CB2 receptors; set-up: method as in PMID 10633038; conditions: partial agonist; cited from earlier work
# [19] = tested on: CB1 receptors; set-up: method as in PMID 10633038; conditions: partial agonist; cited from earlier work
# [20] = tested on: CYP2C9; conditions: mechanistic static modeling, cited from earlier work
# [21] = tested on: CYP2C19; conditions: read-out: Ki,u, cited from earlier work
# [22] = tested on: CYP2D6; conditions: read-out: Ki,u, cited from earlier work
# [23] = tested on: CYP1A2; conditions: read-out: Ki,u, cited from earlier work
# [24] = tested on: major hepatic P450 enzymes; conditions: cited from earlier work
# [25] = diclofenac -> 4′-hydroxydiclofenac
# [26] = CYP2C9-mediated diclofenac metabolism
# [27] = CYP2C9-mediated warfarin metabolism
# [28] = diclofenac -> 4′-hydroxydiclofenac, adjusted with fu,inc of Δ9-THC / 11-OH-Δ9-THC, 3 experiments
# [29] = warfarin -> 7′-hydroxywarfarin, adjusted with fu,inc
# [30] = 4′-hydroxylation of diclofenac, adjusted with fu,inc
# [31] = 7′-hydroxylation of warfarin, adjusted with fu,inc
structure (smiles),measurement,setting,value
"CCCCCc1cc(O)c2c(c1)OC(C)(C)C1CC=C(CO)CC21 (stereo not shown) [11-OH-Δ8-THC, 11-hydroxy-Δ8-THC]",IC50 shift at 30 min,[1],[…]
same,IC50,"[3]; pH 7.4, probe diclofenac, warfarin (CYP2C9), midazolam (CYP3A4), recombinant P450-overexpressing microsomes, read-out: IC50,u across all P450 enzyme-substrate pairs",790 to 1500 nM
same,Ki,"[3]; pH 7.4, recombinant microsomes and HLM, read-out: Ki,u across all reactions",400 to 1200 nM
same,IC50 at 10 min,"[3]; pooled human liver microsomes, pH 7.4, probe diclofenac, warfarin (CYP2C9), midazolam (CYP3A4), HLM, read-out: IC50,u across all P450 enzyme-substrate pairs",710 to 1700 nM
same,IC50,[4]; [25],710 ± 430 nM
same,IC50,[4]; warfarin -> 7′-hydroxywarfarin,1720 ± 100 nM
same,Ki,[4]; 4′-hydroxylation of diclofenac,770 ± 40 nM
same,Ki,[4]; 7′-hydroxylation of warfarin,400 ± 80 nM
same,IC50,[5],1480 ± 210 nM
same,Ki,[5],890 ± 200 nM
same,Inhibition Type,[5],N
same,inhibition mechanism (Lineweaver–Burk),[5],noncompetitive inhibition
same,reduction of 4′-hydroxydiclofenac formation,[6],> 40%
same,reduction of 7′-hydroxywarfarin formation,[6],> 40%
same,"fu,p (unbound fraction of drug in plasma)",[7],0.03
same,IC50,[9],1570 ± 320 nM
same,Ki,[9],1200 ± 70 nM
same,inhibition of other major hepatic P450 enzymes tested,[10],Minimal or no inhibition
same,reduction of 1′-hydroxymidazolam formation,[11],> 40%
same,inhibition of CYP3A4 with testosterone as substrate,[11],inhibition observed for midazolam but not testosterone
same,Cmax,[12]; oral Δ8-THC dose 10 mg,15 nM
same,Cmax,[12]; oral Δ8-THC dose 20 mg,100 nM
same,Cmax,[12]; oral Δ8-THC dose 40 mg,120 nM
CCCCCc1cc(O)c2c(c1)OC(C)(C)C1CCC(CO)=CC21 (stereo not shown) [11-OH-Δ9-THC],mechanism of inhibition,[13],competitive inhibitors
same,Ki,[14]; CYP2B6 in HLM,260 ± 41 nM
same,Ki,[14]; recombinant CYP2B6,86 ± 66 nM
same,inhibitory effect on CYP3A4,[15],not observed previously
"C=C(C)[C@@H]1CCC(C)=C[C@H]1c1c(O)cc(CCCCC)cc1O [CBD, cannabidiol]",increase in systemic exposure of midazolam,[16],> 8 fold
O=C(O)Cc1ccccc1Nc1c(Cl)cccc1Cl [diclofenac],Fg (fraction of substrate available after intestinal metabolism),[17],0.64
same,fm (fraction of hepatic clearance mediated by the inhibited P450 enzyme),[17],0.98
Cc1ncc2n1-c1ccc(Cl)cc1C(c1ccccc1F)=NC2 [midazolam],Fg (fraction of substrate available after intestinal metabolism),[17],0.51
same,fm (fraction of hepatic clearance mediated by the inhibited P450 enzyme),[17],0.93
CC(=O)CC(c1ccccc1)c1c(O)c2ccccc2oc1=O (stereo not shown) [warfarin],fm (fraction of hepatic clearance mediated by the inhibited P450 enzyme),[17],0.91
"CCCCCc1cc(O)c2c(c1)OC(C)(C)C1CC=C(C)CC21 (stereo not shown) [Δ8-THC, Δ8-Tetrahydrocannabinol]",IC50 shift at 30 min,[1],0.85 ± 0.09
same,IC50 shift at 30 min,[2],1.24 ± 0.34
same,IC50,"[3]; pH 7.4, both recombinant enzyme microsomes and HLM, read-out: IC50,u against CYPs 2C9 and 3A4",< 500 nM
same,IC50,[4]; [25],230 ± 30 nM
same,IC50,[4]; warfarin -> 7′-hydroxywarfarin,440 ± 140 nM
same,Ki,[4]; 4′-hydroxylation of diclofenac,320 ± 60 nM
same,Ki,[4]; 7′-hydroxylation of warfarin,230 ± 90 nM
same,IC50,[5],440 ± 140 nM
same,Ki,[5],860 ± 280 nM
same,Inhibition Type,[5],N
same,inhibition mechanism (Lineweaver–Burk),[5],noncompetitive inhibition
same,reduction of 4′-hydroxydiclofenac formation,[6],> 40%
same,reduction of 7′-hydroxywarfarin formation,[6],> 40%
same,"fu,p (unbound fraction of drug in plasma)",[7],0.03
same,Inhibition Type,[8]; 4′-hydroxylation of diclofenac,N
same,inhibition mechanism (Lineweaver–Burk),[8]; [26],noncompetitive inhibition
same,inhibition mechanism (Lineweaver–Burk),[8]; [27],competitive inhibition
same,IC50,[8]; [28],70 ± 10 nM
same,IC50,[8]; [29],200 ± 30 nM
same,Ki,[8]; [30],260 ± 10 nM
same,Ki,[8]; [31],90 ± 40 nM
same,Ki,"[8]; human, recombinant CYP2C9-overexpressing HEK293 microsomes, pH 7.4, probe warfarin (7′-hydroxylation), 7′-hydroxylation of warfarin, adjusted with fu,inc",160 ± 40 nM
same,IC50,[9],480 ± 110 nM
same,Ki,[9],520 ± 20 nM
same,inhibition of other major hepatic P450 enzymes tested,[10],Minimal or no inhibition
same,reduction of 1′-hydroxymidazolam formation,[11],> 40%
same,inhibition of CYP3A4 with testosterone as substrate,[11],inhibition observed for midazolam but not testosterone
same,Cmax,[12]; oral Δ8-THC dose 10 mg,7.9 nM
same,Cmax,[12]; oral Δ8-THC dose 20 mg,17.8 nM
same,Cmax,[12]; oral Δ8-THC dose 40 mg,48 nM
same,potency relative to Δ9-THC,[18],approximately half
same,potency relative to Δ9-THC,[19],approximately half
"CCCCCc1cc(O)c2c(c1)OC(C)(C)C1CC=C(C(=O)O)CC21 (stereo not shown) [Δ8-THC-COOH, 11-nor-Δ8-tetrahydrocannabinol-9-carboxylic acid]",inhibition of any P450 enzymes tested,[10],minimal or no inhibition; also recorded: no inhibition
same,inhibition of any P450 enzymes tested,[10]; listed as 11-nor-Δ8-THC-9-carboxylic acid,no significant inhibition
"CCCCCc1cc(O)c2c(c1)OC(C)(C)C1CCC(C)=CC21 (stereo not shown) [Δ9-THC, Δ9-tetrahydrocannabinol]",increase in systematic exposure of diclofenac,[20]; 40 mg oral dose of Δ9-THC,≥ 44%
same,increase in systematic exposure of diclofenac,[20]; 130 mg oral dose of Δ9-THC,> 560%
same,mechanism of inhibition,[13],competitive inhibitors
same,Ki,[21]; CYP2C19 in HLM,210 ± 82 nM
same,Ki,[21]; recombinant CYP2C19,56 ± 18 nM
same,Ki,[14]; CYP2B6 in HLM,380 ± 29 nM
same,Ki,[14]; recombinant CYP2B6,250 ± 43 nM
same,Ki,[22]; CYP2D6 in HLM,280 ± 30 nM
same,Ki,[22]; recombinant CYP2D6,110 ± 15 nM
same,Ki,[23]; CYP1A2 in HLM,100 ± 56 nM
same,Ki,[23]; recombinant CYP1A2,90 ± 27 nM
CCCCCc1cc(O)c2c(c1)OC(C)(C)C1CCC(C(=O)O)=CC21 (stereo not shown) [Δ9-THC-COOH],inhibition of any major hepatic P450 enzymes,[24],no inhibition
